Experimental data taken from patent US6441169B1, “Pyrimidin-2-oxy-4-one and pyrimidin-2-oxy-4-thione derivatives” (Syngenta Crop Protection, Inc., priority 1997, dated 2002).

Key:
Puccinia graminis = type: in vivo; details: wheat plants; a) spray 0.02% active ingredient, infected 24 hours later; b) soil drench 0.006% a.i., infected after 48 hours; evaluation 12 days after infection
[1] = test system: Colletotrichum lagenarium; test: B-2 Action against Colletotrichum lagenarium on cucumbers; type: in vivo; details: cucumber plants; spray concentration 0.002%; infected 2 days later; evaluation 8 days after infection
Method: Action Against Colletotrichum lagenarium on Cucumbers After a growth period of 2 weeks, cucumber plants are sprayed with an aqueous spray mixture (concentration 0.002%) prepared from a wettable powder formulation of the test compound and infected 2 days later with a spore suspension (1.5×10^5 spores/ml) of the fungus and incubated for 36 hours at 23° C. and high humidity. Incubation is then continued at normal humidity and c. 22° C. Evaluation of the fungal infestation is made 8 days after infection.

Venturia inaegualis = test: B-3 Residual-protective action against Venturia inaegualis on apples; type: in vivo; details: apple cuttings; spray 0.02% a.i.; infected 24 hours later; evaluation 12 days after infection
Method: Residual-protective Action Against Venturia inaegualis on Apples Apple cuttings with fresh shoots 10 to 20 cm long are sprayed to drip point with a spray mixture (0.02% a.i.) prepared from a wettable powder formulation of the test compound. The plants are infected 24 hours later with a conidia suspension of the fungus. The plants are then incubated for 5 days at 90 to 100% relative humidity and stood in a greenhouse for a further 10 days at 20 to 24° C. Evaluation of the fungal infestation is made 12 days after infection.

| Compound | activity against Puccinia graminis (fungal infestation) (Puccinia graminis) | activity against Colletotrichum lagenarium (fungal infestation) [1] | activity against Venturia inaegualis (fungal infestation) (Venturia inaegualis) | melting point |
| --- | --- | --- | --- | --- |
| CCCn1c(OCC2(C)CC2)nc2ccc(Br)cc2c1=O [Compound 1.7, 6-bromo-2-(1-methylcyclopropylmethoxy)-3-n-propyl-3Hquinazoline-4-one] | good to excellent activity | good to excellent activity | good activity | 81 to 85 °C |
| CCCCn1c(OCC2(C)CC2)nc2ccc(Br)cc2c1=O [Compound 1.10, 6-bromo-2-(1-methylcyclopropylmethoxy)-3-n-buyl-3H-quinazoline-4-one] | good to excellent activity | good to excellent activity | good activity |  |
| CC1(COc2nc3ccc(Br)cc3c(=O)n2CC2CC2)CC1 [Compound 1.15] | good to excellent activity | good to excellent activity | good activity |  |
| CCCn1c(OCC2CC2C)nc2ccc(Br)cc2c1=O (centres unmarked) [Compound 1.22, 6-bromo-2-(2-methylcyclopropylmethoxy)-3-n-propyl-3H-quinazoline-4-one] | good to excellent activity | good to excellent activity | good activity | 49 to 51 °C |
| CCCCn1c(OCC2CC2C)nc2ccc(Br)cc2c1=O (centres unmarked) [Compound 1.25, 6-bromo-2-(2-methylcyclopropylmethoxy)-3-n-buyl-3H-quinazoline-4-one] | good to excellent activity | good to excellent activity | good activity |  |
| CC1CC1COc1nc2ccc(Br)cc2c(=O)n1CC1CC1 (centres unmarked) [Compound 1.30] | good to excellent activity | good to excellent activity | good activity |  |
| CCCn1c(OCC2CC2(Cl)Cl)nc2ccc(Br)cc2c1=O (centres unmarked) [Compound 1.37] | good to excellent activity | good to excellent activity | good activity |  |
| CCCn1c(OCC2(C)CC2)nc2sc(Cl)cc2c1=O [Compound 3.6, 6-chloro-2-(1-methylcyclopropylmethoxy)-3-n-propyl-3H-thieno[2.3-d]pyrimidin-4-one] | good to excellent activity | good to excellent activity | good activity |  |
| CCCn1c(OCC2(C)CC2)nc2sc(Br)cc2c1=O [Compound 3.7, 6-bromo-2-(1-methylcyclopropylmethoxy)-3-n-propyl-3H-thieno[2.3-d]pyrimidin-4-one] | good to excellent activity | good to excellent activity | good activity |  |
| CCCn1c(OCC2CC2C)nc2sc(Cl)cc2c1=O (centres unmarked) [Compound 3.21, 6-chloro-2-(2-methylcyclopropylmethoxy)-3-n-propyl-3H-thieno[2.3-d]pyrimidin-4-one] | good to excellent activity | good to excellent activity | good activity |  |
| CCCn1c(OCC2CC2C)nc2sc(Br)cc2c1=O (centres unmarked) [Compound 3.22, 6-bromo-2-(2-methylcyclopropylmethoxy)-3-n-propyl-3H-thieno[2.3-d]pyrimidin-4-one] | good to excellent activity | good to excellent activity | good activity |  |
| CCCn1c(OCC2CC2(Cl)Cl)nc2sc(Cl)cc2c1=O (centres unmarked) [Compound 3.36, 6-chloro-2-(2,2-Dichlorocyclopropylmethoxy)-3-n-propyl-3H-thieno-[2.3-d]pyrimidin-4-one] | good to excellent activity | good to excellent activity | good activity |  |
| CCCn1c(OCC2CC2(F)F)nc2sc(Cl)cc2c1=O (centres unmarked) [Compound 3.51] | good to excellent activity | good to excellent activity | good activity |  |
| CCCn1c(OCC2CC2(F)F)nc2sc(Br)cc2c1=O (centres unmarked) [Compound 3.52] | good to excellent activity | good to excellent activity | good activity |  |
| CCCn1c(OCC2(C)CC2)nc2c(Br)csc2c1=O [Compound 4.8] | good to excellent activity | good to excellent activity | good activity |  |
| CCCn1c(OCC2CC2C)nc2c(Br)csc2c1=O (centres unmarked) [Compound 4.23] | good to excellent activity | good to excellent activity | good activity |  |
